From patent US20240109880A1 (Insilico Medicine IP Limited, priority 2021, published 2024)

Biological target: KAT6A (Homo sapiens (Human), UniProt Q92794)
Test: KAT6A Biochemical Assay (radiometric 384-well, [3H]-Ac-CoA, biotinylated H4(1-30) peptide)
Conditions: 5 nM KAT6A enzyme solution (2×), 60 min reaction at room temperature
Method: Inhibition of KAT6A enzymatic activity by test compounds was determined using a radiometric 384-well format assay. A 10-point serial dilution of the test compounds were conducted in DMSO and then a volume of 200 nL was transferred into 384-well assay plate by Echo (Labcyte). 10 μL of 2× enzyme solution (5 nM KAT6A (Active Motif) in assay buffer (50 mM Tris-HCl pH 8.0, 50 mM KCl, 0.1 mM EDTA, 5% glycerol, 1 mM DTT)) was dispensed into assay plate except for low control wells, in which 10 μL of assay buffer was transferred. The plate was incubated at room temperature for 15 min before addition of 10 μL of 2×[^3H]-acetyl coenzyme A (Ac-CoA) and substrate peptide mix solution (500 nM (KAT6A) [^3H]-Ac-CoA (PerkinElmer) and 800 nM (KAT6A) biotinylated H4(1-30) peptide (GL Biochem) in assay buffer) to each well to start reaction. The plate was incubated at room temperature for 60 min (KAT6A), and then the reaction was stopped by adding 10 μL of stop solution (cold Ac-CoA (Cayman) in 1× assay buffer). 25 μL of reaction in each well was transferred to Flashplate (PerkinElmer) and incubated for another 1 hour at room temperature. The plate was read on Microbeta and the inhibition percentage of each compound treated well was calculated based on the equation in h %=(Max−sample)/(Max−Min)*100 where Max is signal from high control wells with enzyme, and Min is signal from low control wells with assay buffer only. The in h % data were further fit in XL-Fit to obtain IC50 values using a 4-parameter logistic (4PL) sigmoidal curve model.

Chain of KAT6A (Q92794 whole entry): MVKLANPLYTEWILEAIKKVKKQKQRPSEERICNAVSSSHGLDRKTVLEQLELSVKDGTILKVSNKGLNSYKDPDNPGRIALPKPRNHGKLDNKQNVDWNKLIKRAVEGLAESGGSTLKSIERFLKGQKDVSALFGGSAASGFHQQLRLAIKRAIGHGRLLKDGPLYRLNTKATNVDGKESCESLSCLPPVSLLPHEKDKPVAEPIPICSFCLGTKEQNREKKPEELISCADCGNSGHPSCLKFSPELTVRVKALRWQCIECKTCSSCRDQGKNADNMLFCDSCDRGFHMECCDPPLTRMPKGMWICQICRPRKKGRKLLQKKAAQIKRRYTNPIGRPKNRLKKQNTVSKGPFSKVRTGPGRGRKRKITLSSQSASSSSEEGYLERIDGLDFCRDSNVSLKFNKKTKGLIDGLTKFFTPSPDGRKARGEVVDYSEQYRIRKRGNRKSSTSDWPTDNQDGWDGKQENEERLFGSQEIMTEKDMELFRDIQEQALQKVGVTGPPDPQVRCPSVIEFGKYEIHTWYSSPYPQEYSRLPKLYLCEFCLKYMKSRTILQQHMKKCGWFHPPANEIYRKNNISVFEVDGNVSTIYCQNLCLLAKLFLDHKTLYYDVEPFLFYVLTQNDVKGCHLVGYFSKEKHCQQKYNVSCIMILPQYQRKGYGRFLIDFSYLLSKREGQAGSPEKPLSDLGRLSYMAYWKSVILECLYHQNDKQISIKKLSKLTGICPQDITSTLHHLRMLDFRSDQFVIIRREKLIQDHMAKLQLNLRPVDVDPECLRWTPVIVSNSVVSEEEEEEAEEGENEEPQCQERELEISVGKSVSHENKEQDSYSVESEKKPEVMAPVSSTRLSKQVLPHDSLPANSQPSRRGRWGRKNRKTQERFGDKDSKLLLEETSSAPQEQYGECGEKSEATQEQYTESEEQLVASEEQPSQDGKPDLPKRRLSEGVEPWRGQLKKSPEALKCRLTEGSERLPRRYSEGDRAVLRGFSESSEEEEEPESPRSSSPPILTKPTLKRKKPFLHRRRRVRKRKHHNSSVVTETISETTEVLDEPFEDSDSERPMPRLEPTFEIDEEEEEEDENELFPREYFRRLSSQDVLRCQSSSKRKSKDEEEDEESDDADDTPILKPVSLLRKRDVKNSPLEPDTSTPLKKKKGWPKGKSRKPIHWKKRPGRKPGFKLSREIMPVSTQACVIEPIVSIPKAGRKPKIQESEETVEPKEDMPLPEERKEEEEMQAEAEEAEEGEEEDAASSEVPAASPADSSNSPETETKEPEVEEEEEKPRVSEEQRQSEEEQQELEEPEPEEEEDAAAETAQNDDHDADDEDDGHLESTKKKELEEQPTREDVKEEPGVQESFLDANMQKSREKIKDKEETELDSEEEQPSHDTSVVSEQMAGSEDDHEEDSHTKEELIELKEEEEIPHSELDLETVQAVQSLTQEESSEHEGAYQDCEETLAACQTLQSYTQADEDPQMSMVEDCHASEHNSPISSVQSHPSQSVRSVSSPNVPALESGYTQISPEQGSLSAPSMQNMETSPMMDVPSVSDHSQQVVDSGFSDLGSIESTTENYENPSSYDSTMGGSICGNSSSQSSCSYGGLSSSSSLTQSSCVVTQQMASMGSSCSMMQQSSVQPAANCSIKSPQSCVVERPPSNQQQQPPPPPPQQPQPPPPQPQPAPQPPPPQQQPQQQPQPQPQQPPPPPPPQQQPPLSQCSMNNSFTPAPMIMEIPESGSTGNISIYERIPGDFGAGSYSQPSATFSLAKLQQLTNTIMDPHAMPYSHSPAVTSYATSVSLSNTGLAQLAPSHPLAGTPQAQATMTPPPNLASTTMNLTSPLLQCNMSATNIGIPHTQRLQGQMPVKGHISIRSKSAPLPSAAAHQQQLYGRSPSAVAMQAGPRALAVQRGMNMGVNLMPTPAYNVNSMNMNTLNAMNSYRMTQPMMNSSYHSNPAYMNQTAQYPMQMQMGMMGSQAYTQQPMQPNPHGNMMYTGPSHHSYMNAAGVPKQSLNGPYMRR

Compared with COc1cccc(OC)c1S(=O)(=O)Nc1noc2cc(Cn3cccn3)cnc12 [Compound 1, N-(6-((1H-pyrazol-1-yl)methyl)isoxazolo[4,5-b]pyridin-3-yl)-2,6-dimethoxybenzenesulfonamide], COc1cccc(OC)c1S(=O)(=O)Nc1noc2cc(Cn3cccn3)cc(OCF)c12 [Compound 31, N-(6-((1H-pyrazol-1-yl)methyl)-4-(fluoromethoxy)benzo [d]isoxazol-3-yl)-2,6-dimethoxybenzenesulfonamide] is lower in IC50: 10 to 1000 nM for the first, under 10 nM for the second.

COc1ccnc(OC)c1S(=O)(=O)Nc1noc2cc(Cn3cccn3)cc(OC)c12 [Compound 2, N-(6-((1H-pyrazol-1-yl)methyl)-4-methoxybenzo[d]isoxazol-3-yl)-2,4-dimethoxypyridine-3-sulfonamide] and COc1ccnc(OC)c1S(=O)(=O)Nc1noc2cc(Cn3cccn3)cc(OC(F)F)c12 [Compound 5, N-(6-((1H-pyrazol-1-yl)methyl)-4-(difluoromethoxy)benzo[d]isoxazol-3-yl)-2,4-dimethoxypyridine-3-sulfonamide] fall in the same range of IC50: 10 to 100 nM for the first, 10 to 100 nM for the second.

First: COc1cccc(OC)c1S(=O)(=O)Nc1noc2cc(Cn3cccn3)cc(OC(F)F)c12 [Compound 3, N-(6-((1H-pyrazol-1-yl)methyl)-4-(difluoromethoxy)benzo[d]isoxazol-3-yl)-2,6-dimethoxybenzenesulfonamide]
Second: COc1cccc(OC)c1S(=O)(=O)Nc1noc2cc(Cn3cccn3)cc(OC(F)(F)F)c12 [Compound 8, N-(6-((1H-pyrazol-1-yl)methyl)-4-(trifluoromethoxy)benzo[d]isoxazol-3-yl)-2,6-dimethoxybenzenesulfonamide]
The IC50 of the first is lower: under 10 nM for the first, 10 to 100 nM for the second. The first is the more potent here.

COc1cccc(OC)c1S(=O)(=O)Nc1noc2cc(Cn3cccn3)cc(OCC(F)(F)F)c12 [Compound 4, N-(6-((1H-pyrazol-1-yl)methyl)-4-(2,2,2-trifluoroethoxy)benzo[d]isoxazol-3-yl)-2,6-dimethoxybenzenesulfonamide] and COc1cc(C(F)(F)F)nc(OC)c1S(=O)(=O)Nc1noc2cc(Cn3cccn3)cc(OC)c12 [Compound 41, N-(6-((1H-pyrazol-1-yl)methyl)-4-methoxybenzo[d]isoxazol-3-yl)-2,4-dimethoxy-6-(trifluoromethyl)pyridine-3-sulfonamide] fall in the same range of IC50: 10 to 100 nM for the first, 10 to 100 nM for the second.

COc1ccccc1S(=O)(=O)Nc1noc2cc(Cn3cccn3)cc(OC(F)F)c12 [Compound 6, N-(6-((1H-pyrazol-1-yl)methyl)-4-(difluoromethoxy)benzo[d]isoxazol-3-yl)-2-methoxybenzenesulfonamide] and O=S(=O)(Nc1noc2cc(Cn3cccn3)cc(OC(F)F)c12)c1ccccc1OC(F)(F)F [Compound 7, N-(6-((1H-pyrazol-1-yl)methyl)-4-(difluoromethoxy)benzo[d]isoxazol-3-yl)-2-(trifluoromethoxy)benzenesulfonamide] cannot be ordered by IC50: 10 to 100 nM for the first, 10 to 1000 nM for the second.

COc1cc(C)nc(OC)c1S(=O)(=O)Nc1noc2cc(Cn3cccn3)cc(OC)c12 [Compound 11, N-(6-((1H-pyrazol-1-yl)methyl)-4-methoxybenzo[d]isoxazol-3-yl)-2,4-dimethoxy-6-methylpyridine-3-sulfonamide] and COc1cc(C)nc(OC)c1S(=O)(=O)Nc1noc2cc(Cn3cccn3)cc(OCF)c12 [Compound 37] cannot be ordered by IC50: under 10 nM for the first, under 10 nM for the second.

First: COc1ccccc1S(=O)(=O)Nc1noc2cc(Cn3cccn3)cc(OC(F)(F)F)c12 [Compound 12, N-(6-((1H-pyrazol-1-yl)methyl)-4-(trifluoromethoxy)benzo [d]isoxazol-3-yl)-2-methoxybenzenesulfonamide]
Second: COc1ccccc1S(=O)(=O)Nc1noc2cc(Cn3cccn3)c3c(c12)OCCC3 [Compound 15, N-(5-((1H-pyrazol-1-yl)methyl)-3,4-dihydro-2H-chromeno [8,7-d]isoxazol-9-yl)-2-methoxybenzenesulfonamide]
The IC50 of the first is higher: 10 to 100 nM for the first, under 10 nM for the second.

First: COc1cccc(OC)c1S(=O)(=O)Nc1noc2nc(Cn3cccn3)cc(OC)c12 [Compound 13, N-(6-((1H-pyrazol-1-yl)methyl)-4-methoxyisoxazolo[5,4-b]pyridin-3-yl)-2,6-dimethoxybenzenesulfonamide]
Second: COc1cc(C2CC2)nc(OC)c1S(=O)(=O)Nc1noc2cc(Cn3cccn3)cc(OC)c12 [Compound 39, N-(6-((1H-pyrazol-1-yl)methyl)-4-methoxybenzo[d]isoxazol-3-yl)-6-cyclopropyl-2,4-dimethoxypyridine-3-sulfonamide]
The IC50 of the first is higher: over 1000 nM for the first, 10 to 100 nM for the second.

First: COc1ncccc1S(=O)(=O)Nc1noc2cc(Cn3cccn3)c3c(c12)OCCC3 [Compound 16, N-(5-((1H-pyrazol-1-yl)methyl)-3,4-dihydro-2H-chromeno [8,7-d]isoxazol-9-yl)-2-methoxypyridine-3-sulfonamide]
Second: COc1ccnc(OC)c1S(=O)(=O)Nc1noc2cc(Cn3cccn3)c3c(c12)OCCC3 [Compound 17, N-(5-((1H-pyrazol-1-yl)methyl)-3,4-dihydro-2H-chromeno [8,7-d]isoxazol-9-yl)-2,4-dimethoxypyridine-3-sulfonamide]
The IC50 of the first is higher: 10 to 100 nM for the first, under 10 nM for the second. The second is the more potent here.

COc1cc(C)nc(OC)c1S(=O)(=O)Nc1noc2cc(Cn3cccn3)c3c(c12)OCCC3 [Compound 18, N-(5-((1H-pyrazol-1-yl)methyl)-3,4-dihydro-2H-chromeno [8,7-d]isoxazol-9-yl)-2,4-dimethoxy-6-methylpyridine-3-sulfonamide] and COc1cc(C)nc(OC)c1S(=O)(=O)Nc1noc2cc(Cn3cccn3)c3c(c12)OCCCC3 [Compound 21, N-(6-((1H-pyrazol-1-yl)methyl)-2,3,4,5-tetrahydrooxepino [3′,2′:5,6]benzo[1,2-d]isoxazol-10-yl)-2,4-dimethoxy-6-methylpyridine-3-sulfonamide] cannot be ordered by IC50: under 10 nM for the first, under 10 nM for the second.

First: COc1ccnc(OC)c1S(=O)(=O)Nc1noc2cc(Cn3cccn3)c3c(c12)OCCCC3 [Compound 20, N-(6-((1H-pyrazol-1-yl)methyl)-2,3,4,5-tetrahydrooxepino [3′,2′:5,6]benzo[1,2-d]isoxazol-10-yl)-2,4-dimethoxypyridine-3-sulfonamide]
Second: COc1ccnc(OC)c1S(=O)(=O)Nc1noc2cc(Cn3cccn3)c3c(c12)OCC3 [Compound 32, N-(4-((1H-pyrazol-1-yl)methyl)-2,3-dihydrobenzofuro[7,6-d]isoxazol-8-yl)-2,4-dimethoxypyridine-3-sulfonamide]
The IC50 of the first is lower: under 10 nM for the first, 10 to 100 nM for the second. The first is the more potent here.

First: COc1ccccc1S(=O)(=O)Nc1noc2cc(Oc3ccccn3)c3c(c12)OCCC3 [Compound 25, 2-methoxy-N-(5-(pyridin-2-yloxy)-3,4-dihydro-2H-chromeno [8,7-d]isoxazol-9-yl)benzenesulfonamide]
Second: COc1ccccc1S(=O)(=O)Nc1noc2cc(Oc3ccccn3)c3c(c12)OCC3 [Compound 26, 2-methoxy-N-(4-(pyridin-2-yloxy)-2,3-dihydrobenzofuro[7,6-d]isoxazol-8-yl)benzenesulfonamide]
The IC50 of the first is lower: under 10 nM for the first, 10 to 100 nM for the second.

Compared with COc1cccc(OC)c1S(=O)(=O)Nc1noc2cc(Oc3cccnn3)c3c(c12)OCCC3 [Compound 30, 2,6-dimethoxy-N-(5-(pyridazin-3-yloxy)-3,4-dihydro-2H-chromeno[8,7-d]isoxazol-9-yl)benzenesulfonamide], COc1cccc(OC)c1S(=O)(=O)Nc1noc2cc(Oc3ncccc3C)c3c(c12)OCCC3 [Compound 36, 2,6-dimethoxy-N-(5-((3-methylpyridin-2-yl)oxy)-3,4-dihydro-2H-chromeno[8,7-d]isoxazol-9-yl)benzenesulfonamide] is lower in IC50: 10 to 100 nM for the first, under 10 nM for the second.

Compared with COc1cccc(OC)c1S(=O)(=O)Nc1noc2cc(Oc3ncccn3)c3c(c12)OCCC3 [Compound 33, 2,6-dimethoxy-N-(5-(pyrimidin-2-yloxy)-3,4-dihydro-2H-chromeno[8,7-d]isoxazol-9-yl)benzenesulfonamide], COc1cccc(OC)c1S(=O)(=O)Nc1noc2cc(Oc3ncco3)c3c(c12)OCCC3 [Compound 34, 2,6-dimethoxy-N-(5-(oxazol-2-yloxy)-3,4-dihydro-2H-chromeno[8,7-d]isoxazol-9-yl)benzenesulfonamide] is lower in IC50: 10 to 100 nM for the first, under 10 nM for the second. The second is the more potent here.

COc1cc(C)ncc1S(=O)(=O)Nc1noc2cc(Cn3cccn3)cc(OC)c12 [Compound 38, N-(6-((1H-pyrazol-1-yl)methyl)-4-methoxybenzo[d]isoxazol-3-yl)-4-methoxy-6-methylpyridine-3-sulfonamide] and COc1cc(C(F)F)nc(OC)c1S(=O)(=O)Nc1noc2cc(Cn3cccn3)cc(OC)c12 [Compound 40, N-(6-((1H-pyrazol-1-yl)methyl)-4-methoxybenzo[d]isoxazol-3-yl)-6-(difluoromethyl)-2,4-dimethoxypyridine-3-sulfonamide] fall in the same range of IC50: 10 to 1000 nM for the first, 10 to 1000 nM for the second.

COc1ccnc(OC)c1S(=O)(=O)Nc1noc2cc(Cn3cccn3)c(F)c(OCF)c12 [Compound 42, N-(6-((1H-pyrazol-1-yl)methyl)-5-fluoro-4-(fluoromethoxy)benzo[d]isoxazol-3-yl)-2,4-dimethoxypyridine-3-sulfonamide] was tested, and the IC50 was 10 to 100 nM.
